Measurements reported in patent US20240033237A1, “USE OF A-KETOGLUTARATE IN MANUFACTURE OF MEDICAMENT” (TONGJI UNIVERSITY, priority 2019, published 2024).

Key:
chondrocytes [1] = assay: Catabolic phenotype of IL-1β-stimulated mouse chondrocytes (whole-genome sequencing, q-PCR, western blot); assay type: cell-based
Method: (§1) Mouse chondrocytes were obtained from 7-day-old C57BL/6 mice (Shanghai Slac laboratory animal Co., Ltd.), and the procedure was as follows: under aseptic surgical conditions, bilateral knee cartilages of C57 mice were carefully stripped and digested with 0.2% neutral collagenase (Serva, Germany) for 8 h; cell precipitates were obtained by centrifugation, and the cells were resuspended in modified Eagle medium (DMEM) (Gibco, USA) containing 10% FBS, inoculated in culture dishes, and cultured with high-sugar DMEM medium (containing 10% FBS, 100 U/mL penicillin and 100 mg/L streptomycin) at 37° C. in a 5% CO2 constant temperature incubator. The medium was changed for the first time at 48 h. […] The cells were collected by centrifugation and resuspended, and the concentration was adjusted for inoculation in culture dishes. The cells were subcultured by the above method, and the obtained cells were labeled as P1, P2, P3 generations, etc.
(2) Real-Time Fluorescent Quantitative PCR (Real Time q-PCR) Analysis • 1) The P1 generation mouse chondrocytes cultured in Embodiment 1 were used, the culture medium was sucked out from the culture dish, and the cells were washed once with PBS. • 2) Extraction of total RNA • 1. chloroform (⅕ volume of RNAiso Plus) was added to the homogenate lysate, the cover of the centrifuge tube was closed tightly, and the centrifuge tube was shaken violently by hand for 15 seconds. After the solution is fully emulsified (without phase separation phenomenon), the centrifuge tube was allowed to stand at room temperature for 5 minutes. • 2. the centrifuge tube was centrifuged at 12000 g under 4° C. for 5 minutes. • 3. the centrifuge tube was carefully taken out from the centrifugal machine, at this time the homogenate was divided into three layers: a colorless supernatant, a white protein layer in the middle, and a lower organic phase with color. […] Precipitate usually occurs at the bottom of a test tube after centrifugation.
On ice, SYBR Premix Ex Taq, upstream and downstream primers of catabolic and synthetic genes of chondrocytes, ROX Reference Dye, cDNA template and dH2O were added into a test tube. After being mixed evenly, the mixture was evenly divided into PCR tubes. The PCR tubes were placed in a Q-PCR instrument to detect the product.
P1 generation mouse chondrocytes cultured in Embodiment 1 were subjected to western blot analysis through operations including the following: • 1. Collecting of protein samples: The culture medium was sucked out, and the cells were washed twice with PBS at 4° C. and then dried. 100 μl of cell lysate was added to each well, the cells were lysed on ice for 10 min, and collected into a 1.5 ml centrifuge tube. […] The protein concentration was determined by the BCA Protein Quantification Kit. […]

articular cartilage = assay: Mouse model of knee osteoarthritis (DMM), intra-articular injection, Safranin-O/fast green staining and OARSI score; assay type: in vivo, C57BL/6 mice; settings: 8 weeks after DMM surgery, once a week, 5 times
Text: Male C57BL/6 mice (n=30) were purchased from Shanghai Slac laboratory animal Co., Ltd. and reared to 8 weeks of age. The animal experimental operation method was reviewed and approved by the Ethics Committee of Tongji University School of Medicine. Male C57BL/6 mice reared to 8 weeks of age were anaesthetized, and a longitudinal incision was made in the medial side of the knee joint. The articular cavity was opened along the medial side of the patellar ligament, the fat pad in the intercondylar area was bluntly separated, and the meniscus tibial ligament connecting the medial meniscus was found and transected. The incision was closed after hemostasis by compression, and the mice were continued to be fed. The mice were anesthetized and sacrificed at 4, 8 and 12 weeks after surgery (n=8 for each group), and the knee joints were isolated for histological examination, forming the treatment group. Male C57BL/6 mice reared to 8 weeks of age were anaesthetized, and a longitudinal incision was made in the medial side of the knee joint. […] The damage degree of articular cartilage was observed by Safranin-O/ fast green staining and quantitatively evaluated by OARSI score. […]

chondrocytes [2] = assay: Synthetic phenotype of IL-1β-stimulated mouse chondrocytes (whole-genome sequencing, q-PCR, western blot); assay type: cell-based
Method: as §1
(2) Real-Time Fluorescent Quantitative PCR (Real Time q-PCR) Analysis • 1) The P1 generation mouse chondrocytes cultured in Embodiment 1 were used, the culture medium was sucked out from the culture dish, and the cells were washed once with PBS. • 2) Extraction of total RNA • 1. chloroform (⅕ volume of RNAiso Plus) was added to the homogenate lysate, the cover of the centrifuge tube was closed tightly, and the centrifuge tube was shaken violently by hand for 15 seconds. […]
P1 generation mouse chondrocytes cultured in Embodiment 1 were subjected to western blot analysis through operations including the following: • 1. […] The protein concentration was determined by the BCA Protein Quantification Kit. […]

## COC(=O)CCC(=O)C(=O)OC [α-KG, dimethyl-α-ketoglutarate]
Chondrocytes [1]; q-PCR and western blot, 6 h, 12 h, 24 h, 36 h, 10 ng/ml IL-1β + 7 mM α-KG
  gene and protein expressions of catabolic phenotypic genes MMP3, MMP13, ADAMTS5, NOS2 at different time periods: could inhibit the gene and protein expressions
Chondrocytes [1]; q-PCR, 24 h, 10 ng/ml IL-1β + 7 mM α-KG
  expression of cartilage catabolic phenotypic genes MMP3, MMP13, ADAMTS5, NOS2: inhibit the expression
Chondrocytes [1]; western blot, 24 h, 10 ng/ml IL-1β + 7 mM α-KG
  protein expression of cartilage catabolic phenotypic genes MMP3, MMP13, ADAMTS5, NOS2: inhibited the protein expression
Chondrocytes [1]; whole-genome sequencing, 10 ng/ml IL-1β + 7 mM α-KG vs IL-1β group
  expressions of catabolic phenotypes (metalloproteases MMP2, MMP3, MMP8, MMP9, MMP12, MMP13, MMP27; aggrecanases ADAMTS5, 7, 12, 15, 16, 17; NOS2) of chondrocytes: suppressed
Articular cartilage
  OARSI score, damage degree of articular cartilage: significantly inhibit the progression of osteoarthritis
Articular cartilage; DMM+αKG group vs DMM group
  cartilage damage / progression of osteoarthritis (Safranin O/fast green histology): no significant cartilage damage
Chondrocytes [2]; q-PCR, 10 ng/ml IL-1β + 7 mM α-KG
  expressions of chondrocyte synthetic genes SOX9, COL2A1, ACAN: promote the expressions
Chondrocytes [2]; western blot, 6 h, 12 h, 24 h, 36 h, 10 ng/ml IL-1β + 7 mM α-KG
  protein expressions of chondrocyte synthetic genes SOX9 and COL2A: promote the protein expressions
Chondrocytes [2]; whole-genome sequencing, 24 h, 10 ng/ml IL-1β + 7 mM α-KG vs IL-1β group
  expressions of synthetic phenotypic genes (SOX9, COL2A1, ACAN, COL9A1, COL9A2, COL9A3, COL11A1, COL11A2) of chondrocytes: increased
